Source: patent publication US20160265061A1, “COMPOSITION FOR DIAGNOSING OVARIAN CANCER METASTASIS BY USING CPG METHYLATION IN GENE, AND USE THEREOF” (EWHA UNIVERSITY - INDUSTRY COLLABORATION FOUNDATION, priority 2013, published 2016)

System: SK-OV-3 cell line
Assay: 5-aza-2′-deoxycytidine treatment of SK-OV-3 cell line, gene expression changes by qRT-PCR
Type: cell-based, Human
[1] = primary cell line SK-OV-3 treated with 5, 10 and 20 μM for 3 days, qRT-PCR normalized to GAPDH

With `Nc1ncn([C@H]2C[C@H](O)[C@@H](CO)O2)c(=O)n1` [5-aza-2′-deoxycytidine] the “changes in expressions of the three genes (ADAM12, NTN4 and PTGS2)” value (cell line SK-OV-3, treatment for 3 days, FIGS. 12 to 14) was “increased”, the “increase in ADAM12 gene expression” value (cell line SK-OV-3 treated with 5, 10 and 20 μM for 3 days, qRT-PCR normalized to GAPDH) was “about 2 fold” and the “increase in NTN4 gene expression” value [1] was “about 2 fold”. For the same compound, the “increase in PTGS2 gene expression” value [1] was “about 2 fold”.
